Values joined by “and” are separate entries in the source; they are usually repeats but may differ in a detail not shown here. Equal entries are not always repeated.
Assays:
[1] = test system: pancreatic ductal adenocarcinoma tumours; assay: Dynamic FAZA-PET imaging with two-tissue compartment model analysis in patients with pancreatic ductal adenocarcinoma; assay type: in vivo, human (patients)
Excerpt: In an example experiment, the pharmacokinetics of FAZA in twenty patients with pancreatic ductal adenocarcinoma (PDAC) were modeled, applying principles of diffusive equilibration to interpret transport data calculated from a standard two-tissue compartment model.
Data was taken from twenty patients with biopsy-confirmed pancreatic ductal adenocarcinoma and FAZA-PET scans. Dynamic PET imaging scans were acquired over one hour following injection of FAZA. The one hour time-activity curves (TAC1) were each binned into thirty-four frames: twelve ten-second frames, followed by eight thirty-second frames, followed by seven two-minute frames, followed by seven five-minute frames. Patients returned for a static PET scan at two hours. CT scans used for co-registration were taken at the beginning of the dynamic and static PET scans.
PET activity data was obtained for regions of interest (ROIs) contoured using co-registered CT images. Tumour ROIs were contoured by a radiologist using the CT scan at two hours. This was co-registered manually to the initial CT scan and the two CT ROI sets were co-registered to the dynamic and static PET scans. In order to minimize effects resulting from high liver uptake of FAZA, aorta ROIs were contoured from the same range of PET/CT slices (along the cranial-caudal axis) as the tumour ROIs. At the level of the pancreas, the aorta is between 1.5 and 2 cm in diameter; to minimize partial volume effects, ROIs in the aorta were restricted to 0.75 cm in diameter and combined so that at least twenty-five PET voxels (3.9×3.9×3.3 mm^3 each) were imaged.
Dynamic PET TACs of FAZA were analyzed using the two-tissue compartment model:
Here, the concentration of tracer in the extravascular space of an imaged region has been partitioned into an unbound, diffusing component Cd as well as a component Cb that is bound by hypoxia. CIn is the “input” function, which was taken to be the imaged tracer concentration in the aorta, as described above. As noted earlier, k1 and k2 are the vascular influx and efflux coefficients and k3 is the tracer trapping rate. The total tracer concentration in an imaged region is C(t)=vbCIn(t)+(1−vb)[Cd(t)+Cb(t)], (5) where vb is the volume fraction occupied by blood in the region of interest. The above model was fitted to both the one-hour TACs (TAC1) as well as the combined two-hour TAC (TAC2) comprising the one-hour TACs plus static scans at two hours (in part to assess co-registration errors, which should be greater for TAC2). Coefficients (vb, k1, k2, and k3) were determined by minimizing
[formula] where Cmodel(ti) are the model activity values [Eqs. (3)-(5)] and Cdata(ti) are the measured values acquired during the N discrete time frames; N=34 for TAC1 and N=35 for TAC2. […] Equation 6 can be minimized with Cmodel(ti) calculated using trapezoidal integration.
An important tissue transport quantity is the distribution volume:
It represents the volume fraction of an imaged ROI in which tracer initially fills; i.e., rapidly equilibrates in. Patlak's formula,
To account for the unexpected correlations between k3 and vd, a model (shown schematically in FIG. 23) may be used in which an imaged voxel is comprised of two tissue types: one in which tracer reaches diffusive equilibration rapidly (with concentration C^(r)), and one in which it reaches equilibrium slowly (with concentration C^(s)): Cd(t)=vsCd^(s)+(1−vs)Cd^(r)(t). (11)
The factors of 1−vs and vs here ensure detailed balance amongst the compartments. kb is the binding rate due to hypoxia and keq represents the equilibration rate in the regions of slow-equilibration. This may be on the order of (0.1→1) hr-^1 when equilibration is driven by diffusion; see Eq. (2).
To distinguish kb and Keq in k3, voxel-scale k3 values were arranged into bins based on distribution volume values. […]

[2] = in most tissue; FAZA and similarly sized molecules; cited from earlier work

O=[N+]([O-])c1nccn1[C@H]1O[C@H](CF)[C@@H](O)[C@@H]1O [FAZA, fluoroazomycinarabinoside]
mean (population-averaged) equilibration rate keq in slow-equilibrating regions ([1]; all twenty patients, standard deviation 0.29 hrs^−1 across patients): 0.44 h⁻¹ and ~0.44 ± 0.29 h⁻¹ | equilibration rate keq ([1]; patient 1, fit of voxel-scale Keq to Eq. (18)): 0.45 h⁻¹ | equilibration rate keq ([1]; patient 2, fit of voxel-scale Keq to Eq. (18)): 0.52 h⁻¹ | average distribution volume of tumour ([1]; resected tumour exhibiting abundant apical mucin (FIG. 12 right)): 0.76 | average distribution volume of tumour ([1]; resected tumour exhibiting little mucin (FIG. 12 left)): 0.92 | vascular influx rate k1, population average of tumour-scale values ([1]; twenty PDAC patients): ~0.3 min⁻¹ | diffusivity D [2]: ~10 μm^2/s

Source: patent US11504075B2, “System, methods, and devices for calculating hypoxic fraction and equilibration rate of small molecular weight tracers using dynamic imaging” (UNIVERSITY HEALTH NETWORK, priority 2017, dated 2022)
